Test results as given in paper PMC11843613, “Further Optimization of the mGlu1 PAM VU6024578/BI02982816: Discovery and Characterization of VU6033685” (ACS Chemical Neuroscience, 2025).
Several values for one entry are separate records, joined by “and”; a condition that tells them apart may be missing. Equal entries are not always repeated. Where two headings read alike, the source gives them in different places.

Columns and labels:
h and r mGlu2-4,6-8 = assay: mGlu subtype selectivity; format: cell-based, human, rat; conditions: Table 1
[1] = tested on: amphetamine-induced hyperlocomotion in rats; assay: Rat amphetamine-induced hyperlocomotion (AHL) with satellite PK; format: in vivo
Method: (§1) mode (5.0 kV spray voltage). The calibration curves were constructed in blank plasma. All data were analyzed using AB Sciex Analyst software v1.5.1.
(§2) All animal study procedures were approved by the Institutional Animal Care and Use Committee and were conducted in accordance with the National Institutes of Health regulations of animal care covered in Principles of Laboratory Animal Care (National Institutes of Health). […]
(§3) GraphPad Prism (version 4.03, GraphPad, La Jolla, CA).
(§4) Amphetamine-induced hyperlocomotion (rat)
(§5) Adult male Sprague-Dawley rats placed into the activity chambers (Med Associates). Thirty minutes after placement in the chambers, the rats were administered VU6024578 (1-10 mg/kg p.o..) or vehicle. Sixty minutes later the rats were injected with amphetamine (0.75 mg/kg s.c. 1 ml/kg) or vehicle (saline) and placed back in the activity chambers for 90 minutes. The data for the studies were analyzed by a between-group 2 way analysis of variance for compound dose and time. Each dose group was compared with the vehicle control group. The calculations were performed and graphed using GraphPad Prism (version 4.03, GraphPad, La Jolla, CA). The AUC was analyzed by a 1-way ANOVA with a Dunnett’s post hoc test. […]

[2] = as above; format: in vivo; conditions: male, Sprague-Dawley, brain (unbound); for concentration at 1.25 h: sample @ 1.25 hr
Method: as §1, §2, §3, §4, §5

mouse mGlu1 = mouse mGlu1 (Mus musculus, UniProt P97772); assay: mGlu1 PAM functional assay (mouse); format: cell-based
mouse mGlu1, sequence (P97772 19-1199 limits assumed): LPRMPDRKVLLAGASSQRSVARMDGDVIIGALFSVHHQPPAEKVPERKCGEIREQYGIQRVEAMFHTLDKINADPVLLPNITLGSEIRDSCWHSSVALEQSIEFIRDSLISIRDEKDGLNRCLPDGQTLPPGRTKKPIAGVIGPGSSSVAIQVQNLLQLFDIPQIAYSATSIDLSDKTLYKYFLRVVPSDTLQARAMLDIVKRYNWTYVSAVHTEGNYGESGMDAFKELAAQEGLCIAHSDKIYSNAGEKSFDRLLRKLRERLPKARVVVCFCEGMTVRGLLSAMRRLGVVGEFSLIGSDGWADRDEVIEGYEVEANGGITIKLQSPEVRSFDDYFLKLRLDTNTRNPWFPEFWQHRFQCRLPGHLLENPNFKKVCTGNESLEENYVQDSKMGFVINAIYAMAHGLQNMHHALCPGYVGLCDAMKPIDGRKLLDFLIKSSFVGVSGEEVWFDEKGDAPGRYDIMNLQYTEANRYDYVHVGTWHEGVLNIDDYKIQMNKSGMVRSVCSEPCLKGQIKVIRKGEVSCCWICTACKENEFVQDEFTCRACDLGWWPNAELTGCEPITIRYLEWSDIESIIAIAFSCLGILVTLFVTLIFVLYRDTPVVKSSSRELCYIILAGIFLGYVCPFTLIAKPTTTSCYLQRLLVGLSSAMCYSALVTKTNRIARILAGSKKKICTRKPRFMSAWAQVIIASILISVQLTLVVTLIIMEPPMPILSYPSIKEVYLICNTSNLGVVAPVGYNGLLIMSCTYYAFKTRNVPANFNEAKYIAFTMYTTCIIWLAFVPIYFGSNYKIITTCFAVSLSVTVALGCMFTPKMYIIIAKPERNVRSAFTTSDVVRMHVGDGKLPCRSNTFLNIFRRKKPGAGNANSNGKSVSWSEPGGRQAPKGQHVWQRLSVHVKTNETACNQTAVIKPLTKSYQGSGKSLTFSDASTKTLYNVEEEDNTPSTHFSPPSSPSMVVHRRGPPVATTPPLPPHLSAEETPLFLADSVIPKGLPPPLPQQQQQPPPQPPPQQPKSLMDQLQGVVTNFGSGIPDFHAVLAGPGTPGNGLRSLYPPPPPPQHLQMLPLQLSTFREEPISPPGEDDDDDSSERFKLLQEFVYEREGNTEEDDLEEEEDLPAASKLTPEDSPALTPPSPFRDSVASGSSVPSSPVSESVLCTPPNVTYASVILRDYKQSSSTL

[3] = Three-day dose escalation toxicology study in mice; format: in vivo, mouse; conditions: for AUC at 3 day: in vivo
[4] = Plasma protein binding (dog); format: in vitro ADME; conditions: pH 7.4, read-out: fu plasma (d)
Method: page 13: at half log concentrations in DMSO were further diluted in assay buffer. The compounds or DMSO vehicle were added to cells and incubated for 2.5 min and an EC20 concentration of glutamate was added and incubated for 1 min. An ECmax concentration of glutamate was also added to cells that were incubated with DMSO vehicle to accurately calculate the EC20 calcium response. Data were normalized by subtracting the basal florescent peak before EC20 agonist addition from the maximal peak elicited by EC20 agonist and PAMs. Using GraphPad Prism 5.0, the concentration response curves were generated and the potencies of the mGlu1 PAMs were determined. DMPK Methods Plasma protein binding: The protein binding of each compound was determined in plasma via equilibrium dialysis employing RED Plates (ThermoFisher Scientific, Rochester, NY). Plasma was added to the 96 well plate containing test compound and mixed thoroughly for a final concentration of 5 µM. Subsequently, an aliquot of the plasma-compound mixture was transferred to the cis chamber (red) of the RED plate, with an phosphate buffer (25 mM, pH 7.4) in the trans chamber. The RED plate was sealed and incubated for 4 hours at 37°C with shaking. […] The in vitro half-life (T 1/2, min, Eq. 1), intrinsic clearance (CLint, mL/min/kg, Eq. 2) and subsequent predicted hepatic clearance (CLhep, mL/min/kg, Eq. 3) was determined S13

Kinetic solubility = format: physicochemical; conditions: kinetic from dmso stock

Compound: Cc1nc(C2CC2)ccc1CNC(=O)c1cc(-n2cccn2)ccc1Cl [compound 8]
- EC50 (h and r mGlu2-4,6-8): > 10000 nM
- AHL efficacy compared with positive control 3 ([1]; rat): comparable efficacy to the standard 3
- minimum effective dose (MED) in AHL ([1]; rat PO): 10 mg/kg
- unbound brain concentration as fold of in vitro rat mGlu1 EC50 at efficacy in AHL ([1]; rat, 10 mg/kg MED, 10 mg/kg): ~0.74 fold and ~0.7 fold
- reversal of amphetamine-induced hyperlocomotion ([1]; rat, oral administration, amphetamine 0.75 mg/kg SC): dose-dependently reversed
- concentration at 1.25 h ([2]; rat PO 1 mg/kg, read-out: Brain Unbound at 1 mg/kg): 16.1 nM
- concentration at 1.25 h ([2]; rat PO 3 mg/kg, read-out: Brain Unbound at 3 mg/kg): 35.4 nM
- concentration at 2.5 h ([2]; rat PO 10 mg/kg, satellite PK, 2.5 h end of study (picture: sample @ 1.25 hr), read-out: free (unbound) brain concentration at 10 mg/kg): 79.8 nM
- EC50 (mouse mGlu1): 52 nM
- mouse mGlu1 Glu Max (mouse mGlu1): 102%
- AUC at 3 day ([3]; mouse, three-day, 50 mg/kg, read-out: AUCss at 50 mg/kg): 5.5 µM·h
- AUC at 3 day ([3]; mouse, three-day, 200 mg/kg, read-out: AUCss at 200 mg/kg): 69.9 µM·h
- AUC at 3 day ([3]; mouse, three-day, high-dose group (printed 500 mg/kg), read-out: AUCss in high-dose group): 208 µM·h
- maximum tolerated dose (MTD) ([3]; mouse three-day study): not reached
- findings at 50 mg/kg ([3]; mouse, three-day, 50 mg/kg): no test-item-related findings
- findings at 200 mg/kg ([3]; mouse, three-day, 200 mg/kg): some of the mice showed signs of weight loss, decreased motor activity, and swaying gait
- findings in high-dose group ([3]; mouse, three-day, high-dose group (printed 500 mg/kg)): several mice displayed weight loss, decreased motor activity, and swaying gait
- fraction unbound at 4 h, 5 µM [4]: 0.099
- solubility kinetic (Kinetic solubility; pH 2.2, aqueous buffer, read-out: Kinetic solubility pH 2.2): > 100 µM
- solubility kinetic (Kinetic solubility; pH 6.8, aqueous buffer, read-out: Kinetic solubility pH 6.8): < 1 µM
